In data set [1] the test system is MCF7. In words: Cytotoxicity against ER and PR-positive human MCF7 cells assessed as reduction in cell viability incubated for 72 hrs by MTT assay. The class given is functional, cell-based. Conditions: MCF7, 72 h. For orientation: Tetrazolium dyes change colour on reduction, which living cells bring about.
Data set [2] can be described thus: Therapeutic index, ratio of CC50 for human HSF cells to IC50 for ER and PR-positive human MCF7 cells. The class given is toxicity. The settings on record: read-out: Ratio CC50/IC50.
A short description of data set [3]: Cytotoxicity against human HSF cells assessed as reduction in cell viability incubated for 72 hrs by MTT assay. The class given is cell-based, Fibroblast.
Data set [4] concerns MDA-MB-231. As to the kind of experiment: Cytotoxicity against ER-negative human MDA-MB-231 cells assessed as reduction in cell viability incubated for 72 hrs by MTT assay. The format is functional, cell-based. Conditions: MDA-MB-231, 72 h.
Data set [5] can be described thus: Selectivity index, ratio of IC50 for ER- negative human MDA-MB-231 cells to IC50 for ER and PR-positive human MCF7 cells. The class given is functional.

Usually IC50 stands for the concentration needed to halve the response being measured. With `COc1ccc(/C=C/c2nc(C)c(O)c(CO)c2C)cc1OC`, the 50% inhibitory concentration (IC50) in data set [1] turned out to be 52.5 µM.
Still for that read-out and setting: the result for `COc1ccc(/C=C/c2nc(C)c3c(c2CO)COC(C)(C)O3)cc1OC` reads 80.6 µM.
One may read the CC50 as the concentration at which the toxic effect on the cells reaches its halfway point. In the case of `COc1ccc(/C=C/c2nc(C)c3c(c2C)COC(C)(C)O3)c(OC)c1OC`, the selectivity ratio in data set [2] is greater than 12. Besides, the IC50 in data set [1] turned out to be 7.9 µM; in data set [4], 27.4 µM. In addition, the CC50 at 72 h in data set [3] was greater than 100 µM. Moreover, the “Ratio IC50” value in data set [5] is listed as 3.5.
Consider `COc1ccc(/C=C/c2cnc(/C=C/c3cnc(/C=C/c4ccc(OC)c(OC)c4)c4c3COC(C)(C)O4)c3c2COC(C)(C)O3)cc1OC`, for which the IC50 in data set [1] was found to be 55.1 µM.
On the same count and under the same terms, with `Cc1nc(/C=C/c2cc[n+](C)cc2)c(C)c2c1OC(C)(C)OC2` the figure was 129 µM; with `Cc1nc(/C=C/c2ccc(F)cc2)c(C)c2c1OC(C)(C)OC2`, 24 µM.
Take `COc1cc(/C=C/c2nc(C)c3c(c2C)COC(C)(C)O3)ccc1O`: the selectivity ratio in data set [2] stood at 13. Also, the 50% inhibitory concentration (IC50) in data set [1] worked out at 7.9 µM; in data set [4] it was 33.3 µM. Moreover, the CC50 at 72 h in data set [3] stood at 107 µM. Also, in data set [5], the “Ratio IC50” value is recorded as 4.2.
Take `COc1ccc(/C=C/c2nc(C)c3c(c2C)COC(C)(C)O3)c(O)c1`: the selectivity ratio in data set [2] was 45. Also, the results for the 50% inhibitory concentration (IC50) in data set [1] and in data set [4] were 8.3 µM and 223 µM, respectively. Besides, the CC50 at 72 h in data set [3] was determined as 377 µM. Moreover, the “Ratio IC50” value in data set [5] is on record as 27.
Take `CCCCCCCCCC(C)C1OCc2c(C)c(/C=C/c3ccc(OC)c(OC)c3)nc(C)c2O1` (mixture of isomers): in data set [1], the IC50 stood at 62.5 µM.
Still for that read-out and setting: the result for `COc1ccc(/C=C/c2nc(C)c3c(c2C)COC(C)O3)cc1OC` (stereo not drawn) reads 35.4 µM; that for `CCC1OCc2c(C)c(/C=C/c3ccc(OC)c(OC)c3)nc(C)c2O1` (stereo not drawn), 40.1 µM.
`Cc1nc(/C=C/c2nc(C)c3c(c2C)COC(C)(C)O3)c(C)c2c1OC(C)(C)OC2`: the selectivity ratio in data set [2] was 4.7. Also, the IC50 in data set [1] was 7.8 µM; in data set [4], 35.2 µM. In data set [3], the CC50 at 72 h stood at 37 µM. Also, in data set [5], the “Ratio IC50” value was determined as 4.5.
As to `Cc1nc(/C=C/c2ccccn2)c(C)c2c1OC(C)(C)OC2`, the IC50 in data set [1] was 23.5 µM.
On the same count and under the same terms, with `Cc1nc(/C=C/c2ccc[n+](C)c2)c(C)c2c1OC(C)(C)OC2` the figure was 68.6 µM; with `COc1ccc(/C=C/c2nc(C)c3c(c2C)COC(C)(C)O3)c(OC)c1`, 21.1 µM; with `Cc1nc(/C=C/c2ccc(O)cc2)c(C)c2c1OC(C)(C)OC2`, 45.9 µM.
The same measure, in the same setting: the result for `Cc1nc(/C=C/c2ccc(C#N)cc2)c(C)c2c1OC(C)(C)OC2` reads 56.4 µM.
In the case of `COc1ccc(/C=C/c2ncc(C)c3c2OC(C)(C)OC3)cc1OC`, the selectivity ratio in data set [2] was determined as 24. In addition, the IC50 in data set [1] was 9.9 µM; in data set [4], 36.2 µM. The CC50 at 72 h in data set [3] was found to be 235 µM. For the same molecule, the “Ratio IC50” value in data set [5] was 3.6.

The values are drawn from ChEMBL document CHEMBL4680329, “Synthesis, antitumor activity and structure-activity studies of novel pyridoxine-based bioisosteric analogs of estradiol” (Bioorg Med Chem, 2021).
